Data published in PubChem BioAssay (NCI).
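Compound exposure: 48 hours, 5 concentrations, 96-well plates. The concentration for 50% growth inhibition is given as GI50. TGI denotes the concentration required for complete inhibition of growth.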

Key:
Assay in all cases: NCI anticancer screen, dose series, 48 h
OVCAR-3 ovarian = test system: OVCAR-3 ovarian
COLO 205 colon = test system: COLO 205 colon
A498 renal = test system: A498 renal
MDA-MB-435 = test system: MDA-MB-435
NCI/ADR-RES ovarian = test system: NCI/ADR-RES ovarian
MALME-3M melanoma = test system: MALME-3M melanoma
K-562 leukemia = test system: K-562 leukemia
MCF7 breast = test system: MCF7 breast
SK-OV-3 ovarian = test system: SK-OV-3 ovarian
NCI-H522 lung = test system: NCI-H522 lung

SMILES | GI50 (OVCAR-3 ovarian) | TGI (OVCAR-3 ovarian) | GI50 (COLO 205 colon) | TGI (COLO 205 colon) | GI50 (A498 renal) | TGI (A498 renal) | GI50 (MDA-MB-435) | TGI (MDA-MB-435) | GI50 (NCI/ADR-RES ovarian) | TGI (NCI/ADR-RES ovarian) | GI50 (MALME-3M melanoma) | TGI (MALME-3M melanoma) | GI50 (K-562 leukemia) | TGI (K-562 leukemia) | GI50 (MCF7 breast) | TGI (MCF7 breast) | GI50 (SK-OV-3 ovarian) | TGI (SK-OV-3 ovarian) | GI50 (NCI-H522 lung) | TGI (NCI-H522 lung)
CCOC(=O)c1ccccc1OC(=O)NNc1ccccc1 | 16.3 µM | > 100 µM | 2.45 µM | > 100 µM | > 68 µM | > 100 µM | 0.531 µM | > 100 µM | 3.8 µM | > 100 µM | 5.44 µM | > 100 µM | 0.225 µM | > 100 µM | 8.14 µM | > 100 µM | > 79.9 µM | > 100 µM | 1.67 µM | > 100 µM
CCN(CC)CCNc1ccc(C)c2sc3cc(Cl)ccc3c(=O)c12 | 1.73 µM | 3.23 µM | 1.62 µM | 3.35 µM | 1.89 µM | 4.79 µM | 1.7 µM | 3.14 µM | 1.62 µM | 3.23 µM | 1.84 µM | 3.61 µM | 1.64 µM | 3.44 µM | 1.55 µM | 3.2 µM | 1.77 µM | 4.88 µM | 2.04 µM | 3.77 µM
N#Cc1c(NC(=O)NCc2ccccc2)sc2c1CCCC2 | 0.344 µM | 1.87 µM | 0.593 µM | > 28.9 µM | 0.236 µM | 1.13 µM | 0.215 µM | 0.595 µM | 0.424 µM | > 34.1 µM | 0.598 µM | > 100 µM | 0.43 µM | > 100 µM | 0.363 µM | > 100 µM | 9.2 µM | > 100 µM | 0.559 µM | > 100 µM
C[C@]12CCc3nc(Nc4cccc(O)c4)sc3C1=CC[C@@H]1[C@@H]2CC[C@]2(C)/C(=N\NC(N)=S)CC[C@@H]12 | 1.4 µM | 2.87 µM | 1.91 µM | 3.61 µM | 3.01 µM | 15.5 µM | 1.76 µM | 4.55 µM | 3.07 µM | > 100 µM | 1.6 µM | 3.51 µM | 2.15 µM | > 100 µM | 1.52 µM | 3.13 µM | 3.21 µM | 22 µM | 1.7 µM | 3.69 µM
O=C1C(Cl)=C(Sc2nnc3c4ccccc4c4ccccc4c3n2)C(=O)c2ccccc21 | – | 27.2 µM | – | 38.9 µM | – | 37.2 µM | – | 3.41 µM | – | > 86.3 µM | – | 11.6 µM | – | > 59.3 µM | – | 28.2 µM | – | 55.3 µM | – | 57.7 µM
COc1cccc(CCC2CCCN(c3cc(C)nc(N)n3)C2)c1 (stereo not given) | 0.242 µM | 0.675 µM | 0.313 µM | 1.06 µM | 0.288 µM | 2.51 µM | 0.153 µM | 0.404 µM | 0.394 µM | 5.9 µM | 0.527 µM | 14.9 µM | 0.259 µM | 10.6 µM | 0.292 µM | 11.9 µM | 0.414 µM | 11.7 µM | 0.289 µM | 3.16 µM
O=C(c1ccco1)c1nc2cc(C(F)(F)F)ccc2nc1C(F)(F)F | > 100 µM | > 100 µM | > 100 µM | > 100 µM | > 100 µM | > 100 µM | > 100 µM | > 100 µM | > 100 µM | > 100 µM | > 100 µM | > 100 µM | > 100 µM | > 100 µM | 40.6 µM | > 100 µM | > 100 µM | > 100 µM | > 100 µM | > 100 µM
Nc1c(C(=O)c2ccc(-c3cccnc3)cc2)cnn1-c1ccc(F)cc1 | > 22.8 µM | > 25 µM | > 21.9 µM | > 25 µM | > 18.8 µM | > 25 µM | > 25 µM | > 25 µM | > 19.5 µM | > 25 µM | 11 µM | > 20.3 µM | > 25 µM | > 25 µM | > 25 µM | > 25 µM | > 14.2 µM | > 23 µM | > 12.7 µM | > 23.1 µM
O=C1CC[C@H](N2C(=O)c3cccc4c(Cc5ccc(CN6CCOCC6)cc5)ccc2c34)C(=O)N1 | 65.6 µM | > 100 µM | 45.8 µM | > 100 µM | > 100 µM | > 100 µM | 36.9 µM | > 100 µM | 42 µM | > 100 µM | 30 µM | > 100 µM | 10.2 µM | > 100 µM | 23.7 µM | > 100 µM | > 100 µM | > 100 µM | 12.3 µM | > 100 µM
Nc1nc2c(ncn2C2CCC(CO)O2)c(=O)n1C(=O)c1ccccc1 (stereo not given) | – | > 100 µM | – | > 100 µM | – | > 100 µM | – | > 100 µM | – | > 100 µM | – | > 100 µM | – | > 100 µM | – | > 100 µM | – | > 100 µM | – | > 100 µM
Cc1cc(Cl)cc2c(N=Nc3ccc(S(N)(=O)=O)cc3)c(O)[nH]c12 | > 25 µM | > 25 µM | > 25 µM | > 25 µM | > 25 µM | > 25 µM | > 25 µM | > 25 µM | > 25 µM | > 25 µM | > 25 µM | > 25 µM | > 25 µM | > 25 µM | > 25 µM | > 25 µM | > 25 µM | > 25 µM | > 25 µM | > 25 µM
CC1(C)N=C(N)N=C(N)N1c1ccc(CCCCc2ccccc2)c(Cl)c1 | 0.0541 µM | 1.76 µM | 0.0281 µM | 1.68 µM | 0.746 µM | 14.5 µM | 0.038 µM | 5.91 µM | 6.74 µM | > 100 µM | 0.855 µM | 8.93 µM | 0.0256 µM | > 51.2 µM | 0.0256 µM | 2.12 µM | 0.43 µM | 11.1 µM | 0.05 µM | 1.83 µM
CSc1ccc(-c2ccccc(=O)c2O)cc1 | 0.373 µM | 29.7 µM | 1.98 µM | > 100 µM | 2.71 µM | 19 µM | 0.646 µM | > 100 µM | 0.278 µM | 2.12 µM | 2.41 µM | > 100 µM | 0.447 µM | > 100 µM | 0.322 µM | > 100 µM | 0.551 µM | > 100 µM | 0.47 µM | 55.9 µM
